# Values quoted from earlier work, collected in patent publication US20250275973A1, “USE OF ALC1 INHIBITORS AND SYNERGY WITH PARPI” (EISBACH BIO GMBH, priority 2022, published 2025).
# System: GFP-tagged PARP1 and PARP2
# Conditions: U2OS cells treated with PARPi; background section
row,Structure (SMILES),retention/recruitment of GFP-tagged PARP1 and PARP2 at induced DNA lesions
1,Cn1ncnc1[C@H]1c2n[nH]c(=O)c3cc(F)cc(c23)N[C@@H]1c1ccc(F)cc1 [talazoparib],enhanced retention
2,C[C@]1(c2nc3c(C(N)=O)cccc3[nH]2)CCCN1 [veliparib],overall less PARP1/PARP2 recruitment
